What was measured:
[1] = biological target: T1, His-hMAGL (recombinant polyhistidine tagged human MAGL protein) (Homo sapiens, UniProt Q99685); assay: Measurement of MAGL inhibitory activity (arachidonic acid production from 2-arachidonylglycerol, RapidFire-mass spectrometry); format: biochemical; conditions: MAGL inhibitory rate, test compound 10 μM, 60 min preincubation, 2-arachidonylglycerol substrate
T1 construct: made in house; host or cells: E. coli BL21(DE3)
T1 sequence (Q99685 1-303): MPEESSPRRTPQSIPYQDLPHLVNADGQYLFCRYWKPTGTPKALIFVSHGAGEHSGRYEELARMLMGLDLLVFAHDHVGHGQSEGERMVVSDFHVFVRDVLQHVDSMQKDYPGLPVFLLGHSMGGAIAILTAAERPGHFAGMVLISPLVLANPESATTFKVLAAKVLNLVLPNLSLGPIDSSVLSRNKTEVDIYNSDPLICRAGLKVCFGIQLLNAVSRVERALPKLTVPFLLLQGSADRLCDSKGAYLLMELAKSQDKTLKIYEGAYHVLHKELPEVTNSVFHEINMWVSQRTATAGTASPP
How it was run: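 Arachidonic acid formed was quantified by online solid-phase extraction and triple-quadrupole MS in negative SRM mode against a d8 internal standard. Reaction: recombinant His-hMAGL (7.5 ng/mL, pH 7.5 Tris buffer with Triton X-100 and BSA) plus 2-AG (5 μL of 150 μM stock) for 10 min at room temperature, quenched with 2% formic acid. Percent inhibition corrected for enzyme-free background.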

[2] = system: intracerebral 2-AG and arachidonic acid; assay: Measurement of intracerebral 2-AG and arachidonic acid concentrations after oral administration; format: in vivo, C57BL/6J mice; conditions: for 2-AG concentration / arachidonic acid concentration: cerebrum, male C57BL/6J mice, 3 mg/kg by gavage; for 2-AG concentration: control 9.9; for arachidonic acid concentration: control 163.5; for migration into brain: oral administration to C57BL/6J mice, 3 mg/kg
Description: As the mouse, 8-week-old male C57BL/6J mice (CLEA Japan, Inc.) were used (6 mice/group). Administration solutions were prepared by suspending the test compounds (compound 1 (compound of Example 279), compound 2 (compound of Example 361) and compound 3 (compound of Example 362)) in 0.5% methylcellulose solution (Wako Pure Chemical Industries, Ltd.). The dose of the test compound was prepared to be 3 mg/kg body weight/10 mL. The test compounds were administered by gavage at 3 mg/kg body weight. The cerebrum was isolated after the administration of the test compound (isolation time after the administration of the test compound is shown in Table 3), and the cerebrum hemisphere was extracted. The obtained cerebrum hemisphere was frozen on dry ice, and the frozen tissue weight was measured.
The cerebral tissue weight was measured, and cerebral tissue was homogenized with 4-fold (v/w) of isopropanol (IPA), and double diluted with IPA. To the diluted sample (200 μL) was added internal standard solution (5 μL) ([5,6,8,9,11,12,14,15-D8]-(5Z,8Z,11Z,14Z)5,8,11,14-eicosatetraenoic acid (AA-d8, 0.5 nmol/mL IPA) and [5,6,8,9,11,12,14,15-D8]-(5Z,8Z,11Z,14Z)-5,8,11,14-eicosatetraenoyl-2-glycerol ester (2-AG-d3, 0.5 nmol/mL IPA)), and the mixture was centrifuged at 15000 rpm for 5 min. The supernatant was injected to liquid chromatography mass spectrometer to perform quantitative analysis.
For liquid chromatography, Shimadzu LC20A system (Shimadzu Corporation) was used. The separation was performed by gradient elution method with mobile phase A (10 mmol/L HCOONH4/HCOOH (100:0.2, v/v)) and mobile phase B (ethanol/IPA (3:2, v/v)) using Shim-pack XR-ODS (2.2 μm, 2.0×30 mm, Shimadzu Corporation) at column temperature of 50° C., at flow rate of 0.5 mL/min. The gradient conditions are as follows: 0-1 min, 1% B; 1-1.2 min, 1-55% B; 1.2-2.7 min, 55-75% B; 2.7-3.5 min, 75-99% B; 3.5-6 min, 99% B; 6-8 min, 1% B.
For mass spectrometer, API5000 (AB SCIEX) was used. The eluate from the liquid chromatography was directly ionized by turbospray ionization method, where (5Z,8Z,11Z,14Z)5,8,11,14-eicosatetraenoic acid (AA) and AA-d8 were measured by negative ionization mode, and (5Z,8Z,11Z,14Z)5,8,11,14-eicosatetraenoyl-2-glycerol ester (2-AG) and 2-AG-d3 were measured by positive ionization mode.
A solution for calibration curve was prepared to the concentration of 2, 5, 10, 20, 50, 100, 200, 500, 1000 nmol/mL of acetonitrile. These solutions (10 μL) was mixed with 200 μL of IPA and 5 μL of internal standard solution, and the mixture was centrifuged at 15000 rpm for 5 min, and the supernatant was injected to liquid chromatography mass spectrometer to perform analysis. The calibration curve was drawn by regression line with a weighting of 1/x^2, and the quantitativity was confirmed by accuracy of 100±20% and R^2>0.99.

[3] = isolation 2 hour after administration
[4] = isolation 1 hour after administration

| inhibition at 10 µM [1] [%] | migration into brain [2] | SMILES | also measured |
| --- | --- | --- | --- |
| 99 |  | Cc1c(C(=O)N2CC3(CCC(=O)N3)C2)sc2cc(C(F)(F)F)ccc12 [Example 366, 2-((3-methyl-6-(trifluoromethyl)-1-benzothiophen-2-yl)carbonyl)-2,5-diazaspiro[3.4]octan-6-one] |  |
|  | migrated into brain | O=C1NC2(CO1)CN(C(=O)c1sc3c(F)c(OC(F)(F)F)ccc3c1Cl)C2 [compound 1, 2-((3-chloro-7-fluoro-6-(trifluoromethoxy)-1-benzothiophen-2-yl)carbonyl)-7-oxa-2,5-diazaspiro[3.4]octan-6-one] | 2-AG concentration [2, 3]: 73.2 nmol/g; arachidonic acid concentration [2, 3]: 109.4 nmol/g |
|  | migrated into brain | O=C1NC2(CO1)CN(C(=O)c1sc3cc(F)ccc3c1Cl)C2 [compound 2, 2-((3-chloro-6-fluoro-1-benzothiophen-2-yl)carbonyl)-7-oxa-2,5-diazaspiro[3.4]octan-6-one] | 2-AG concentration [2, 4]: 30.2 nmol/g; arachidonic acid concentration [2, 4]: 151.8 nmol/g |
|  | migrated into brain | O=C1NC2(CO1)CN(C(=O)c1sc3cc(F)cc(F)c3c1Cl)C2 [compound 3, 2-((3-chloro-4,6-difluoro-1-benzothiophen-2-yl)carbonyl)-7-oxa-2,5-diazaspiro[3.4]octan-6-one] | 2-AG concentration [2, 4]: 25.7 nmol/g; arachidonic acid concentration [2, 4]: 156.1 nmol/g |

The next lines start with the compound.

| SMILES | inhibition at 10 µM [1] [%] | migration into brain [2] | also measured |
| --- | --- | --- | --- |
| O=C1NC2(CO1)CN(C(=O)c1sc3cc(F)cc(OCC4CC4)c3c1Cl)C2 [Example 363, 2-((3-chloro-4-(cyclopropylmethoxy)-6-fluoro-1-benzothiophen-2-yl)carbonyl)-7-oxa-2,5-diazaspiro[3.4]octan-6-one] | 99 |  |  |
| O=C1NC2(CO1)CN(C(=O)c1sc3cc(Cl)ccc3c1Cl)C2 [Example 364, 2-((3,6-dichloro-1-benzothiophen-2-yl)carbonyl)-7-oxa-2,5-diazaspiro[3.4]octan-6-one] | 100 |  |  |
| O=C1NC2(CCN(C(=O)c3sc4cc(C(F)(F)F)ccc4c3Cl)C2)CO1 (stereo not shown) [Example 365, 7-((3-chloro-6-(trifluoromethyl)-1-benzothiophen-2-yl)carbonyl)-3-oxa-1,7-diazaspiro[4.4]nonan-2-one] | 100 |  |  |

From patent publication US10610520B2, “Heterocyclic compound” (Takeda Pharmaceutical Company Limited, priority 2016, dated 2020)
